Experiments:
ddY mice [1] = assay: Muscle relaxant effect (traction method), first part; conditions: mouse, in vivo, po, 300 mg/kg
Description: Muscle Relaxant Effect (Traction Method)
(§1) Compound 3, Compound 13, diazepam or buspirone was suspended in a 0.5 % sodium carboxymethyl cellulose solution, and the suspension was orally administered to 3- to 4-week-old male ddY mice (in groups of 5) in a volume of 10 ml/kg one hour before the start of experiment.
With reference to a method described in Japan. J. Pharmacol., 49. 337˜349(1989), the foreleg of the mouse was hung on a horizontal wire, having a diameter of 1.2 mm and fixed at a level of 30 cm, three times consecutively. […] Thus, ED5 0 was determined for evaluation. […] Diazepam and buspirone were 2.2 mg/kg and 427.8 mg/kg, respectively, in ED5 0.

ddY mice [2] = assay: Acute toxicity test (LD50), first part; assay type: in vivo; conditions: oral, male ddY mice, observed for 3 days
Wistar rats = assay: Anticonflict test (first part, Test Example 1); assay type: in vivo; conditions: for Frequency of water drinking behavior: 1 h before test, value relative to control = 100
Description: Wistar rats (males weighing 140 to 160 g) were used for experiment in groups of 11 to 14.
The test compound, diazepam or buspirone was suspended in a 0.5 % sodiumn carboxymethyl cellulose solution, and the suspension was orally given to the animal in a volume of 5 mnl/kg one hour before the start of experiment.
With reference to a method described in “Process in Anxiolytics and Antidepresants,” ediled by Showa Ueki and Tatsuo Furukawa, Ishiyaku Shuppansha, 56-59 (1981) , the agents were tested using experimental boxes having a grid floor and a metal drinking tube in the floor. No water was supplied to the rats for 48 hours before the experiment. Upon lapse of first 24 hours, each group of rats were placed into the experimental box, permitted access to water for 30 seconds and caused to recognize the metal drinking tube. Upon lapse of further 24 hours with access to water prevented, the rats were placed into the box again and permitted access to water on condition that an electric current was passed between the metal drinking tube and the grid to give an electroshock for every 20 times of water drinking behavior to measure the frequency of water drinking behavior for 3 minutes.
The frequency is expessed by a value relative to the frequency of the control which is taken as 100.

ddY mice [3] = assay: Effect on central nervous system depressant: pentobarbital anesthetic method; conditions: oral, mice; pentobarbital 40 mg/kg i.p.
Description: (§2) Effect On Central Nervous System Depressant
a. Pentobarbital Anesthetic Method
Compound 3, Compound 13, diazepam or buspirone was suspended in a 0.5 % sodium carboxymethyl cellulose solution, and the suspension was orally administered to 3- to 4-week-old male ddY mice (in groups of 5 to 10) in a volume of 10 ml/kg one hour before the start of experiment.
The test was conducted with reference to a method described in “Evaluation of Medicinal Efficacies (1), Pharmacological Test Method (1), Basic lectures on Development of Pharmaceuticals,” 144˜145(1971). More specifically, the group of mice were intraperitoneally given pentobarbital at a dose of 40 mg/kg and checked for sleeping time.

ddY mice [4] = assay: Effect on central nervous system depressant: ethanol enhancing method, first part; conditions: mouse, in vivo, po, 300 mg/kg
Description: as §2
b. Ethanol Enhancing Method
(§3) Compound 3, Compound 13, diazepam or buspirone was suspended in a 0.5 % sodium carboxymethyl cellulose solution, and the suspension was orally administered to 3- to 4-week-old male ddY mice (in groups of 6) in a volume of 10 ml/kg one hour before the start of experiment.
The test was conducted with reference to a method described in Japan. J. Pharmacol., 49, 337˜349(1989). More specifically, the group of mice were intraperitoneally given 25 % ethanol at a dose of 20 ml/kg and checked for the time interval between loss and recovery of the righting reflex.

ddY mice [5] = assay: Anticonvulsant effect (pentylenetetrazol-induced convulsion method), first part; assay type: in vivo; conditions: oral, dose of 300 mg/kg
Description: Anticonvulsant Effect (Pentylenetetrazol-Induced Convulsion Method)
as §3
The test was conducted with reference to a method described in “Evaluation of Medicinal Efficacies (1), Pharmacological Test Method (1), Basic lectures on Development of Pharmaceuticals,” 167˜172(1971).

ddY mice [6] = assay: Sedative effect (spontaneous locomotor activity), first part; conditions: mouse, in vivo, po, 300 mg/kg
Description: Sedative Effect (Spontaneous Locomotor Activity)
as §1
The test was conducted with reference to a method described in “Evaluation of Medicinal Efficacies (1), Pharmacological Test Method (1), Basic Lectures on Development of Pharmaceuticals,” 50˜54(1971). More specifically, the group of mice were given the test drug and thereafter measured the amount of spontaneous locomotor activity for 10 minutes per mouse rising Animex MK-110 (product of Muromachi Kikai Co., Ltd.).

COc1ccc(C(=O)N2C(=O)CCC3C(O)CCC32)cc1 (centres unmarked) [Compound 13, γ-6,c-7-Hydroxy-2-(4-methoxybenzoyl)-2-azabicyclo-[4.3.0]nonan-3-one] was tested, and the “Muscle relaxant effect (in words)” value (ddY mice [1]) was “no muscle relaxant effect”, the “Acute Toxicity LD50” value (ddY mice [2]) was 3000< mg/kg and the Frequency of water drinking behavior (Wistar rats; dose 0.001 mg/kg oral) was 130%. For the same compound, the Frequency of water drinking behavior (Wistar rats; dose 0.01 mg/kg oral) was 183%, the Frequency of water drinking behavior (Wistar rats; dose 0.1 mg/kg oral) was 177% and the Frequency of water drinking behavior (Wistar rats; dose 1.0 mg/kg oral) was 169%. The “Anxiolytic effect in the anticonflict test (in words)” value (Wistar rats; oral, compounds at doses of 0.001 to 1.0 mg/kg) was “increase in the frequency of water drinking behavior”, the “ED50, pentobarbital sleeping time in excess of twice control” value (ddY mice [3]) was 224.5 mg/kg and the “Ethanol enhancing effect (in words)” value (ddY mice [4]) was “no ethanol enhancing effect”. The “Anticonvulsant effect (in words)” value (ddY mice [5]) was “no anticonvtilsant effect” and the “Sedative effect (in words)” value (ddY mice [6]) was “no sedative effect”.

Source: patent US6500819B2, “Bicyclolactam compounds, use thereof and intermediates for preparing thereof” (Taiho Pharmaceutical Company Limited, priority 1994, dated 2002)
